Consider 2 compounds from ChEMBL document CHEMBL1155630, “New metabolites from the West Indian sea feather Pseudopterogorgia bipinnata” (J Nat Prod, 2000).

Each structure is given as a SMILES string. The source made the active and inactive calls. The rule behind the calls is not given here.

The test concerns Mycobacterium tuberculosis. Put plainly: Antitubercular activity against Mycobacterium tuberculosis H37Rv at 6.25 ug/mL. The format is functional, organism-based.

As for `C=C1CC(=O)/C=C(/C)C[C@@H]2OC(=O)[C@]3(O[C@@H]23)[C@H]2C[C@@H]([C@@]3(C)CO3)[C@H](O)[C@]1(O)O2`, the outcome was inactive.

On to `C=C(C)[C@H](CCC1=C[C@H](CC(C)=O)OC1=O)[C@H](O)c1oc(C(C)=O)cc1C`, for which the outcome was inactive.
